Assay results reported in paper PMC5908295 (Oncotarget, 2018).

Columns and labels:
CYP2C9 = molecular target: T1, CYP2C9 (Homo sapiens, UniProt P11712); assay: CYP isoforms inhibition; format: in vitro ADME; details: 5-dose, 3-fold dilution starting at 30 µM
T1 construct: Cambridge Bioscience Limited (ran the assay)
Protocol: or absence of enzyme cofactors. The assay was performed microsomes. (Supplementary Table 7).
with the respective reference samples (i.e. without measured at Cambridge Bioscience Limited (except
cofactors). After incubation, drug transformation by liver CYP1A2 inhibition which was measured in-house). […]
The analysis of two standard compounds (i.e. positive a very weak potential for CYP inhibition with IC50
and negative controls) was included. […]

KASUMI-6 = assay: MTS viability assay, 72 h; details: 72 h
Protocol: (§2) 15-25 ×10^3 of MV-4-11, MOLM-13, MOLM-14, MOLM-16, KG-1, Eol-1, SKM-1, PL-21, GDM-1, SKNO-1, RS4;11, Kasumi-3 and Kasumi-6 cells were seeded in 150 μL of culture medium onto individual wells in a 96 well plates, in triplicates. On the same day, 50 μL of medium containing tested inhibitor was added to the wells. Each compound was tested at 8 concentrations, in triplicates. As a negative control, the medium containing 0.1% DMSO was used. […] Staurosporine was used at 10 μM as a positive control. One the day of drug addition, basal signal from untreated cells was measured from in triplicate to determine time zero (T0). […] GI50 and LC50 values were extrapolated from a variable (four-parameter) dose-response curve fitted in GraphPad Prism.

[1] = Metabolic stability, liver S9 fraction; format: in vitro ADME; details: Dog, 37 °C, read-out: Liver S9 fraction t1/2 (converted)
[2] = Blood biochemistry in mice with MV-4-11 tumors; format: in vivo; details: treatment day 15
Description: All animals were handled in strict accordance with good animal practice as defined by the relevant national and local animal welfare bodies. SCID and SCID/beige C.B-17 mice were provided by Harlan Laboratories or Charles River Laboratories, and were maintained in pathogen free conditions. For the xenograft experiments, age-matched (9-11 weeks old) females were used. 5×10^6 of MV-4-11 or MOLM-16 cells were suspended in a mixture (1:1, v:v) of PBS with Matrigel (BD Biosciences,) and injected subcutaneously (sc), in a total volume of 100 μL, above the groin on the right hind limb. For MOLM-13 and KG-1 cells, a mixture (3:1, v:v) of PBS and Matrigel HC (BD Bioscience,) was used to inject 5 × 10^6 of cell per mouse subcutaneously (sc), in a total volume of 100 μL. When tumors reached 100-130 mm^3, mice were randomized into uniform groups (6-9 mice per group) and subsequently administered the compound. […] At the end of the experiment, mice were anesthetized with isofluran and blood samples for total cell counts and biochemistry were obtained by retro-orbital bleeding. […] 5×10^6 cells suspended in a mixture (3:1, v:v) of PBS and Matrigel were injected as described above. When the tumor volume reached ~120 mm^3, mice were randomized into uniform groups (5 mice per group) and the compound then administered. […] Tumor volume was monitored every second day and calculated using the formula: TV = (a^2×b)/2, where “a” is the short axis in millimeters, and “b” is the long axis in millimeters. Body weight was assessed every day.
Supplementary Table 9: Related to Figure 5C. […] The assessment of
was performed on treatment day 15.
AST – Aspartate aminotransferase, ALT – Alanine transaminase, ALP – alkaline phosphatase, UREA – blood urea nitrogen,
CREA – Creatinine, CK – Creatine kinase, TP- total protein; ALB – Albumin. […]

EOL-1 = assay: MTS viability assay, 72 h; details: Homo sapiens, EOL1, 72 h
Protocol: as §2

[3] = Metabolic stability, liver microsomes; format: in vitro ADME; details: Dog, 37 °C, read-out: Liver microsomes t1/2 (converted)
[4] = Metabolic stability, liver S9 fraction; format: in vitro ADME; details: Human, 37 °C, read-out: Liver S9 fraction t1/2 (converted)
MOLM-16 = assay: MTS viability assay, 72 h; details: MOLM16, 72 h
Protocol: (§3) On the same day, 50 μL of medium containing tested inhibitor was added to the wells. Each compound was tested at 8 concentrations, in triplicates. As a negative control, the medium containing 0.1% DMSO was used. […] Staurosporine was used at 10 μM as a positive control. One the day of drug addition, basal signal from untreated cells was measured from in triplicate to determine time zero (T0). […] GI50 and LC50 values were extrapolated from a variable (four-parameter) dose-response curve fitted in GraphPad Prism.

OCI-AML-2 = assay: MTS viability assay, 72 h; details: Homo sapiens, OCI-AML2, 72 h
Protocol: as §3

PIM3 = PIM3 (Homo sapiens, UniProt Q86V86); assay: KINOMEscan Kd (DiscoverX); format: binding
MV-4-11 = assay: MTS viability assay, 72 h; details: Homo sapiens, MV4-11, 72 h
Protocol: as §3

FLT3 (D835V) = FLT3 (D835V) (Homo sapiens, UniProt P36888, D835V); assay: KINOMEscan Kd, specific screen against FLT3 mutants; format: binding
Protocol: (§1) Dissociation constants (Kd) and inhibition levels of FLT3 mutants were measured at DiscoverX using the KINOMEscan^TM Profiling Service (KdELECT).

FLT3 (D835H) = FLT3 (D835H) (Homo sapiens, UniProt P36888, D835H); assay: as above; format: binding
Protocol: as §1

FLT3 (N841I) = FLT3 (N841I) (Homo sapiens, UniProt P36888, N841I); assay: as above; format: binding
Protocol: as §1

FLT3 (R834Q) = FLT3 (R834Q) (Homo sapiens, UniProt P36888, R834Q); assay: as above; format: binding
Protocol: as §1

FLT3 (K663Q) = FLT3 (K663Q) (Homo sapiens, UniProt P36888, K663Q); assay: as above; format: binding
Protocol: as §1

FLT3 (D835Y) = FLT3 (D835Y) (Homo sapiens, UniProt P36888, D835Y); assay: as above; format: binding
Protocol: as §1

FLT3 (ITD) = FLT3 (ITD) (Homo sapiens, UniProt P36888, ITD); assay: as above; format: binding
Protocol: as §1

FLT3 (ITD, D835V) = FLT3 (ITD, D835V) (Homo sapiens, UniProt P36888, D835V/ITD); assay: as above; format: binding
Protocol: as §1

FLT3 (ITD, F691L) = FLT3 (ITD, F691L) (Homo sapiens, UniProt P36888, F691L/ITD); assay: as above; format: binding
Protocol: as §1

[5] = Metabolic stability, liver microsomes; format: in vitro ADME; details: Mouse, 37 °C, read-out: Liver microsomes t1/2 (converted)
MOLM-13 xenografts = assay: MOLM-13 subcutaneous xenograft; format: in vivo; details: MOLM-13, SCID mice; AC220 10 mg/kg QD, other doses not given
Description: All animals were handled in strict accordance with good animal practice as defined by the relevant national and local animal welfare bodies. SCID and SCID/beige C.B-17 mice were provided by Harlan Laboratories or Charles River Laboratories, and were maintained in pathogen free conditions. For the xenograft experiments, age-matched (9-11 weeks old) females were used. 5×10^6 of MV-4-11 or MOLM-16 cells were suspended in a mixture (1:1, v:v) of PBS with Matrigel (BD Biosciences,) and injected subcutaneously (sc), in a total volume of 100 μL, above the groin on the right hind limb. For MOLM-13 and KG-1 cells, a mixture (3:1, v:v) of PBS and Matrigel HC (BD Bioscience,) was used to inject 5 × 10^6 of cell per mouse subcutaneously (sc), in a total volume of 100 μL. When tumors reached 100-130 mm^3, mice were randomized into uniform groups (6-9 mice per group) and subsequently administered the compound. […] At the end of the experiment, mice were anesthetized with isofluran and blood samples for total cell counts and biochemistry were obtained by retro-orbital bleeding. […] 5×10^6 cells suspended in a mixture (3:1, v:v) of PBS and Matrigel were injected as described above. […] Tumor volume was monitored every second day and calculated using the formula: TV = (a^2×b)/2, where “a” is the short axis in millimeters, and “b” is the long axis in millimeters. Body weight was assessed every day.

T1 sequence (P11712 whole entry, canonical isoform): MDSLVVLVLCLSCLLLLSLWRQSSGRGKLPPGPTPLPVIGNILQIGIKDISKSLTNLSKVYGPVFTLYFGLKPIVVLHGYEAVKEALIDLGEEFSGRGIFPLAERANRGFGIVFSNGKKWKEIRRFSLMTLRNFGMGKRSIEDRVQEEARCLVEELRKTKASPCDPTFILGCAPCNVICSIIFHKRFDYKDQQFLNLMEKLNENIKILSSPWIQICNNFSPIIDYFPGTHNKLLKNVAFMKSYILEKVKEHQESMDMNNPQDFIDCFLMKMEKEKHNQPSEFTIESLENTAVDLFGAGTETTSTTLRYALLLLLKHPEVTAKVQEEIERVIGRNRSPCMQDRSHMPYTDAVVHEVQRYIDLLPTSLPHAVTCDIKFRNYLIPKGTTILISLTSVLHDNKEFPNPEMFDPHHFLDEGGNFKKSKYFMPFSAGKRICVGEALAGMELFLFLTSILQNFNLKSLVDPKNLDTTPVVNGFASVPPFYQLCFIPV

Structure (SMILES): CC(C)n1c(C2CCNCC2)nc2c([N+](=O)[O-])c(Br)c(Br)cc21 [SEL24-B489, 5,6-dibromo-4-nitro-2-(piperidin-4-yl)-1-(propan-2-yl)-1H-1,3-benzodiazole]
- IC50 (CYP2C9): > 150 µM
- GI50 (KASUMI-6): 0.017 µM
- half-life at 1 µM [1]: 6.3 h
- ALB ([2]; SEL24-B489 25 mg/kg): 5.3 g/dL
- ALP ([2]; SEL24-B489 25 mg/kg): 94.2 U/L
- AST ([2]; SEL24-B489 25 mg/kg): 202.4 U/L
- CK ([2]; SEL24-B489 25 mg/kg): 2076 U/L
- CREA ([2]; SEL24-B489 25 mg/kg): 0.40 mg/dL
- K ([2]; SEL24-B489 25 mg/kg): 5.3 mM
- TP ([2]; SEL24-B489 25 mg/kg): 5.6 g/dL
- UREA ([2]; SEL24-B489 25 mg/kg): 6.0 mmol/L
- ALB ([2]; SEL24-B489 50 mg/kg): 4.4 g/dL
- ALP ([2]; SEL24-B489 50 mg/kg): 97.2 U/L
- ALT ([2]; SEL24-B489 50 mg/kg): 49.4 U/L
- AST ([2]; SEL24-B489 50 mg/kg): 135.2 U/L
- CK ([2]; SEL24-B489 50 mg/kg): 1206 U/L
- CREA ([2]; SEL24-B489 50 mg/kg): 0.49 mg/dL
- K ([2]; SEL24-B489 50 mg/kg): 5.3 mM
- Na ([2]; SEL24-B489 50 mg/kg): 141 mM
- TP ([2]; SEL24-B489 50 mg/kg): 5.1 g/dL
- UREA ([2]; SEL24-B489 50 mg/kg): 6.6 mmol/L
- GI50 (EOL-1): 0.266 µM
- half-life at 1 µM [3]: 7.6 h
- half-life at 1 µM [4]: 9.9 h
- GI50 (MOLM-16): 0.042 µM
- CC50 (MOLM-16; read-out: LC50): 0.153 µM
- GI50 (OCI-AML-2): 0.96 µM
- CC50 (OCI-AML-2; read-out: LC50): 2.32 µM
- Kd (PIM3): 0.003 µM
- GI50 (MV-4-11): 0.02 µM
- CC50 (MV-4-11; read-out: LC50): > 10 µM
- Kd (FLT3 (D835V)): 0.011 µM
- Kd (FLT3 (D835H)): 0.037 µM
- Kd (FLT3 (N841I)): 0.15 µM
- Kd (FLT3 (R834Q)): 3.2 µM
- Kd (FLT3 (K663Q)): 0.53 µM
- Kd (FLT3 (D835Y)): 0.016 µM
- Kd (FLT3 (ITD)): 0.012 µM
- Kd (FLT3 (ITD, D835V)): 0.0028 µM
- Kd (FLT3 (ITD, F691L)): 0.01 µM
- half-life at 1 µM [5]: 7.2 h
- TGI (MOLM-13 xenografts): ~ 50%
